This note sets out measurements from patent US20130005743A1, “New positive allosteric modulators of nicotinic acetylcholine receptor” (H. Lundbeck A/S, priority 2011, published 2013).

The target of this assay is T1, human α7 receptor (Homo sapiens, UniProt P36544).
T1 construct: host or cells: rat GH4C1 cell line
Kind of assay: α7 NNR flux assay (FDSS Ca assay, positive allosteric modulation of acetylcholine response). The format is cell-based. The note with it: human α7 receptor stably expressed in rat GH4C1 cells; acetylcholine 20 μM; % modulation relative to PNU-120596 set to 100%. As to the method:
The nicotinic acetylcholine receptor α7 is a calcium-permeable ion channel, whose activity can be measured by over expression in mammalian cells or oocytes. In this version of the assay, the human α7 receptor is stably expressed in the rat GH4C1 cell line. The assay was used to identify positive allosteric modulators (PAMs) of the α7 receptor. Activation of the channel was measured by loading cells with the calcium-sensitive fluorescent dye. Calcium-4 (Assay kit from Molecular Devices), and then measuring real-time changes, in fluorescence upon treatment with test compounds.
The cell line ChanClone GH4C1-nAChRalpha7 from Genionics was seeded from frozen stock in 384-well plates in culture media 2-3 days before experiment to form an approximately 80% confluent layer on the day of experiment.
The cell culture were split into “22.5 cm×22.5 cm”-plates with approximately 100×10^3 cells/cm^2. After four days incubation in a humidified incubator at 37° C. and 5% CO2, it had grown to an 80-90% confluent layer, and the cells were harvested.
Two or three days before the experiment the cells were seeded in 384 well plates from Greiner bio-one (781946, CELLCOAT, Poly-D-Lysine, black, μClear).
The cells were seeded in 384 well plates with 30 μL/well (30000 cells/well) while stirring the cell suspension or otherwise preventing the cells from precipitating.
The loading buffer was 5% v/v Calcium-4 Kit and 2.5 mM Probenecid in assay buffer.
Culture media was removed from the cell plates and 20 μL loading buffer was added in each well. The cell plates were placed in trays and incubated 90 minutes in the incubator (37° C.). Thereafter the plates were incubated 30 minutes at room temperature, still protected from light.
The assay buffer was HBSS with 20 mM HEPES, pH 7.4 and 3 mM CaCl2.
[…] 10 mM compound solution in DMSO was diluted in 50 μL assay buffer. The final test concentrations in the cell plates were 20-10-5-2.5-1.25-0.625-0.312-0.156-0.078-0.039 μM. Assay buffer and 3 μM PNU-120596 were used for control. The agonist acetylcholine was added to a final concentration of 20 μM (˜EC100). In the FDSS7000 the Ex480-Em540 was measured with 1 second intervals. The baseline was made of 5 frames before addition of test compounds, and 95 frames more were made before addition of acetylcholine. The measurement stopped 30 frames after the 2nd addition. Raw data for each well were collected as “the maximum fluorescence count” in the interval 100-131 seconds and as “the average fluorescence count” in the interval 96-100 seconds. The positive allosteric modulation in the 2nd addition was the enhancement of agonist response with test compound compared to agonist alone.
Results were calculated as % modulation of test compound compared to the reference PNU-120596 set to 100%.

T1 sequence (P36544 23-502): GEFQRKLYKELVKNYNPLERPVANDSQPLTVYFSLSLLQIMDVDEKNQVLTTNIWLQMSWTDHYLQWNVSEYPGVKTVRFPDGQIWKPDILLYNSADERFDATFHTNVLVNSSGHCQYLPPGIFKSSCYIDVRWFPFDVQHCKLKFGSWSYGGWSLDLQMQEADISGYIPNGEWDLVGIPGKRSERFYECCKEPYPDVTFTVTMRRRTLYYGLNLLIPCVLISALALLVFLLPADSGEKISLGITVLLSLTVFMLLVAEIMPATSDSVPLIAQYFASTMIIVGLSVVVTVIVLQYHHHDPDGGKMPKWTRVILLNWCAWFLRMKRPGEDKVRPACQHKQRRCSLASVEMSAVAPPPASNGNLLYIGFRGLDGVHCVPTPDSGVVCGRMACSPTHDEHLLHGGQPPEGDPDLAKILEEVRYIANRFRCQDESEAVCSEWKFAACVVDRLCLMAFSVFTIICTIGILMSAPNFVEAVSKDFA

What is called EC50 is the concentration that produces a half-maximal response. For `Cc1cc(C(=O)Nc2c(C)ccnc2C)c2c(C)nn(-c3ccccc3)c2n1` [Compound 2, 3,6-Dimethyl-1-phenyl-1H-pyrazolo[3,4-b]pyridine-4-carboxylic acid (2,4-dimethyl-pyridin-3-yl)-amide], the response was half-maximal at 3.6 µM (EC50). To `Cc1cc(C(=O)Nc2c(C)cncc2C)c2c(C)nn(-c3ccccc3)c2n1` [Compound 3, 3,6-Dimethyl-1-phenyl-1H-pyrazolo[3,4-b]pyridine-4-carboxylic acid (3,5-dimethyl-pyridin-4-yl)-amide] belongs 4.1 µM; to `COc1ccccc1-n1nc(C)c2c(C(=O)Nc3c(C)ccnc3C)cc(C)nc21` [Compound 4, 1-(2-Methoxy-phenyl)-3,6-dimethyl-1H-pyrazolo[3,4-b]pyridine-4-carboxylic acid (2,4-dimethyl-pyridin-3-yl)-amide], 7.1 µM; to `COc1ccc(-n2nc(C)c3c(C(=O)Nc4cccnc4C)cc(C)nc32)cc1` [Compound 5, 1-(4-Methoxy-phenyl)-3,6-dimethyl-1H-pyrazolo[3,4-b]pyridine-4-carboxylic acid (2-methyl-pyridin-3-yl)-amide], 3.3 µM.

Consider `Cc1ccc(-n2nc(C)c3c(C(=O)Nc4c(C)ccnc4C)cc(C)nc32)cc1` [Compound 6, 3,6-Dimethyl-1-p-tolyl-1H-pyrazolo[3,4-b]pyridine-4-carboxylic acid (2,4-dimethyl-pyridin-3-yl)-amide], for which the 50% effective concentration (EC50) is 2.5 µM. To `COc1ccc(-n2nc(C)c3c(C(=O)Nc4c(C)ccnc4OC)cc(C)nc32)cc1` [Compound 7, 1-(4-Methoxy-phenyl)-3,6-dimethyl-1H-pyrazolo[3,4-b]pyridine-4-carboxylic acid (2-methoxy-4-methyl-pyridin-3-yl)-amide] belongs 2.2 µM; to `COc1ccc(-n2nc(C)c3c(C(=O)Nc4cnccc4C)cc(C)nc32)cc1` [Compound 8, 1-(4-Methoxy-phenyl)-3,6-dimethyl-1H-pyrazolo[3,4-b]pyridine-4-carboxylic acid (4-methyl-pyridin-3-yl)-amide], 5.1 µM.

The molecule `COc1cccc(-n2nc(C)c3c(C(=O)Nc4c(C)ccnc4C)cc(C)nc32)c1` [Compound 9, 1-(3-Methoxy-phenyl)-3,6-dimethyl-1H-pyrazolo[3,4-b]pyridine-4-carboxylic acid (2,4-dimethyl-pyridin-3-yl)-amide] gave an EC50 of 4 µM.

The molecule `Cc1ccc(-n2nc(C)c3c(C(=O)Nc4c(C)ccnc4C)cc(C)nc32)cn1` [Compound 10, 3,6-Dimethyl-1-(6-methyl-pyridin-3-yl)-1H-pyrazolo[3,4-b]pyridine-4-carboxylic acid (2,4-dimethyl-pyridin-3-yl)-amide] returned an EC50 of 7.2 µM. To `COc1ccc(-n2ncc3c(C(=O)Nc4c(C)ccnc4C)cc(C)nc32)cc1` [Compound 11, 1-(4-Methoxy-phenyl)-6-methyl-1H-pyrazolo[3,4-b]pyridine-4-carboxylic acid (2,4-dimethyl-pyridin-3-yl)-amide] belongs 2.8 µM. As for `COc1ccc(-n2nc(C)c3c(C(=O)Nc4c(C)ncnc4C)cc(C)nc32)cc1` [Compound 12, 1-(4-Methoxy-phenyl)-3,6-dimethyl-1H-pyrazolo[3,4-b]pyridine-4-carboxylic acid (4,6-dimethyl-pyrimidin-5-yl)-amide], the figure is 4.9 µM; as for `Cc1cc(C(=O)Nc2c(C)ccnc2C)c2c(C)nn(-c3ccc(F)cc3)c2n1` [Compound 13, 1-(4-Fluoro-phenyl)-3,6-dimethyl-1H-pyrazolo[3,4-b]pyridine-4-carboxylic acid (2,4-dimethyl-pyridin-3-yl)-amide], 7.8 µM. As to `Cc1cc(C(=O)Nc2c(C)ccnc2C)c2c(C)nn(-c3ccc(C#N)cc3)c2n1` [Compound 14, 1-(4-Cyano-phenyl)-3,6-dimethyl-1H-pyrazolo[3,4-b]pyridine-4-carboxylic acid (2,4-dimethyl-pyridin-3-yl)-amide], the 50% effective concentration (EC50) worked out at 6.3 µM. As for `COc1ccc(-n2nc(C)c3c(C(=O)Nc4c(C)ccnc4C)ccnc32)cc1` [Compound 15, 1-(4-Methoxy-phenyl)-3-methyl-1H-pyrazolo[3,4-b]pyridine-4-carboxylic acid (2,4-dimethyl-pyridin-3-yl)-amide], the figure is 6 µM; as for `COc1ccc(-n2nc(C)c3c(C(=O)Nc4c(C)ccnc4C)cc(C)nc32)cn1` [Compound 16, 1-(6-Methoxy-pyridin-3-yl)-3,6-dimethyl-1H-pyrazolo[3,4-b]pyridine-4-carboxylic acid (2,4-dimethyl-pyridin-3-yl)-amide], 5.5 µM. As for `Cc1cc(C(=O)Nc2c(C)ccnc2C)c2c(C)nn(-c3ccc(OC(F)(F)F)cc3)c2n1` [Compound 17, 3,6-Dimethyl-1-(4-trifluoromethoxy-phenyl)-1H-pyrazolo[3,4-b]pyridine-4-carboxylic acid (2,4-dimethyl-pyridin-3-yl)-amide], the figure is 11 µM; as for `COc1ccc(-n2nc(C)c3c(C(=O)Nc4c(C)cc(C)nc4C)cc(C)nc32)cc1` [Compound 18, 1-(4-Methoxy-phenyl)-3,6-dimethyl-1H-pyrazolo[3,4-b]pyridine-4-carboxylic acid (2,4,6-trimethyl-pyridin-3-yl)-amide], 6.5 µM; as for `Cc1cc(C(=O)Nc2c(C)ccnc2C)c2c(C)nn(-c3ccc(OC(F)F)cc3)c2n1` [Compound 19, 1-(4-Difluoromethoxy-phenyl)-3,6-dimethyl-1H-pyrazolo[3,4-b]pyridine-4-carboxylic acid (2,4-dimethyl-pyridin-3-yl)-amide], 3.3 µM.

Molecule `COc1ccc(-n2nc(C)c3c(C(=O)Nc4cncnc4C)cc(C)nc32)cc1` [Compound 20, 1-(4-Methoxy-phenyl)-3,6-dimethyl-1H-pyrazolo[3,4-b]pyridine-4-carboxylic acid (4-methyl-pyrimidin-5-yl)-amide] had an EC50 of 4.6 µM. This EC50 and that of the molecule before are within 1.5-fold of each other. To `Cc1cc(C(=O)Nc2c(C)ccnc2C)c2c(C)nn(-c3ccc(N(C)C)cc3)c2n1` [Compound 23, 1-(4-Dimethylamino-phenyl)-3,6-dimethyl-1H-pyrazolo[3,4-b]pyridine-4-carboxylic acid (2,4-dimethyl-pyridin-3-yl)-amide] belongs 3.6 µM.

`Cc1cc(C(=O)Nc2c(C)ccnc2C)c2c(C)nn(-c3ccsc3)c2n1` [Compound 25, 3,6-Dimethyl-1-thiophen-3-yl-1H-pyrazolo[3,4-b]pyridine-4-carboxylic acid (2,4-dimethyl-pyridin-3-yl)-amide] yielded an EC50 of 7.2 µM. As for `Cc1cc(C(=O)Nc2c(C)ccnc2C)c2c(C)nn(-c3cncnc3)c2n1` [Compound 26, 3,6-Dimethyl-1-pyrimidin-5-yl-1H-pyrazolo[3,4-b]pyridine-4-carboxylic acid (2,4-dimethyl-pyridin-3-yl)-amide], the figure is 11 µM. To `COc1ccnc(C)c1NC(=O)c1cc(C)nc2c1c(C)nn2-c1ccccc1` [Compound 28, 3,6-Dimethyl-1-phenyl-1H-pyrazolo[3,4-b]pyridine-4-carboxylic acid (4-methoxy-2-methyl-pyridin-3-yl)-amide] belongs 6.5 µM; to `COc1ccc(-n2nc(C)c3c(C(=O)Nc4cnccc4N(C)C)cc(C)nc32)cc1` [Compound 30, 1-(4-Methoxy-phenyl)-3,6-dimethyl-1H-pyrazolo[3,4-b]pyridine-4-carboxylic acid (4-dimethylamino-pyridin-3-yl)-amide], 2.7 µM. As for `COc1ccc(-n2nc(C)c3c(C(=O)Nc4cnc(C)cc4C)cc(C)nc32)cc1` [Compound 33, 1-(4-Methoxy-phenyl)-3,6-dimethyl-1H-pyrazolo[3,4-b]pyridine-4-carboxylic acid (4,6-dimethyl-pyridin-3-yl)-amide], the figure is 8.9 µM; as for `Cc1cc(C(=O)Nc2c(C)ccnc2C)c2c(C)nn(-c3ccc(O)cc3)c2n1` [Compound 37, 1-(4-Hydroxy-phenyl)-3,6-dimethyl-1H-pyrazolo[3,4-b]pyridine-4-carboxylic acid (2,4-dimethyl-pyridin-3-yl)-amide], 9.5 µM.
